Reference: patent US12570602B2, “Selective serotonin receptor modulators and methods of making and using the same” (Park City Bio, LLC, priority 2024, dated 2026)

What was measured:
5-HT2C receptor = target: T1, 5-HT2C receptor (Homo sapiens, UniProt P28335); assay: Gq activation via Gq/γ1 dissociation BRET, 5-HT2C; format: cell-based; conditions: primary signaling for 5-HT2C via Gq-coupled mechanism compared to B-arrestin
T1 construct: expressed in transfected cells; host or cells: HEK293T
T1 sequence (P28335 33-458): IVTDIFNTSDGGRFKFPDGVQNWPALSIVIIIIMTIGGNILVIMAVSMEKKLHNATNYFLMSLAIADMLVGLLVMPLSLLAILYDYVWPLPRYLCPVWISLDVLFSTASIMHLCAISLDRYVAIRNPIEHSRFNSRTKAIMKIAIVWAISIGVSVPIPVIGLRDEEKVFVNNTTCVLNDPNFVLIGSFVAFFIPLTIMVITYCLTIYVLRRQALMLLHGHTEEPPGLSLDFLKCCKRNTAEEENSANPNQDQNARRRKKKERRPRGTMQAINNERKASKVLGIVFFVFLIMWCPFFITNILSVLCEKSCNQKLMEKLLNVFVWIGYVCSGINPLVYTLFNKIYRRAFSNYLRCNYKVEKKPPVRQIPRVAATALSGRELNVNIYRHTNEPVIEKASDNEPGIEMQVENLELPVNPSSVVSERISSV
Text: (§1) To measure 5-HT2 receptor-mediated Gq activation via Gq/y1 dissociation as measured by Bioluminescence Resonance Energy Transfer (BRET) (McCorvy J D, Wacker D, Wang S, Agegnehu B, Liu J, Lansu K, Tribo A R, Olsen R H J, Che T, Jin J, Roth B L. Structural determinants of 5-HT2B receptor activation and biased agonism. Nat Struct Mol Biol. 2018; 25(9): 787-96), HEK293T cells were sub-cultured in Dulbecco's Modified Eagle Medium (DMEM) supplemented with 10% dialyzed fetal bovine serum (FBS) and were co-transfected in a 1:1:1:1 ratio with Rluc8-fused human Gaq (Gaq-Rluc8), a GFP2-fused to the C-terminus of human Gy1 (Gy1-GFP2), human GI31, and 5-HT2 receptor using TransiT-2020. After at least 18-24 hours, transfected cells were plated in poly-lysine coated 96-well white clear bottom cell culture plates in DMEM containing 1% dialyzed FBS at a density of 25,000-40,000 cells in 200 μL per well and incubated overnight. The following day, medium was decanted, and cells were washed with 60 μL of drug buffer (1×HBSS, 20 mM HEPES, pH 7.4), then 60 μL of drug buffer was added per well. Cells were pre-incubated at in a humidified atmosphere at 37° C. before receiving drug stimulation. […] Substrate addition occurred 15 minutes before reading and utilized 10 μL of the Rluc substrate coelenterazine 400a for Gq dissociation BRET^2 (Prolume/Nanolight, 5 μM final concentration). Plates were read for luminescence at 400 nm and fluorescent GFP2 emission at 510 nm at 1 second per well using a Mithras LB940 multimode microplate reader (e.g. one provided by Berthold). The BRET ratios of fluorescence/luminescence were calculated per well and were plotted as a function of drug concentration using Graphpad Prism 8 (Graphpad Software Inc., San Diego, CA). Data were normalized to % 5-HT stimulation and analyzed using nonlinear regression “log(agonist) vs. response” to yield Emax and EC50 parameter estimates. […]

5-HT2A receptor = target: T2, 5-HT2A receptor (Homo sapiens, UniProt P28223); assay: Gq activation via Gq/γ1 dissociation BRET, 5-HT2A; format: cell-based; conditions: hallucinogenic or non-hallucinogenic plastogenic effect predicted from level of 5-HT2A agonist efficacy
T2 construct: expressed in transfected cells; host or cells: HEK293T
Text: as §1

T2 sequence (P28223 whole entry): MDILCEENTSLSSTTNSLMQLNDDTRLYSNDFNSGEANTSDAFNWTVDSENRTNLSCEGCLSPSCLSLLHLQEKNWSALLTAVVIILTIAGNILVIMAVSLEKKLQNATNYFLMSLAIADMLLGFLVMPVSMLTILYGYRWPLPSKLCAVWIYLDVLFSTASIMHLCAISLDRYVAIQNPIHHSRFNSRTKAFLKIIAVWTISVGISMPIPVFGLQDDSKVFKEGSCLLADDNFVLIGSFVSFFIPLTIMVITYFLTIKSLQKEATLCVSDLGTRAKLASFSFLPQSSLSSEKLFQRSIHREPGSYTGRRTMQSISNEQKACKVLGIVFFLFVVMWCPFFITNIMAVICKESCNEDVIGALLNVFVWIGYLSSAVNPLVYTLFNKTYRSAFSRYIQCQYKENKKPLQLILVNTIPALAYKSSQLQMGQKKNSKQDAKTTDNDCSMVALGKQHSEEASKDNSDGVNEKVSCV

SMILES | 5-HT2C Gq signaling bias? (5-HT2C receptor) | Hall or N-Hall? (5-HT2A receptor)
CNC[C@H]1C[C@@H]1c1cc(F)ccc1OC | Yes | N-Hall
CSc1ccc(F)cc1C1CC1CN(C)C (stereo not drawn) | Yes | N-Hall
CNCC1CC1c1cc(F)ccc1SC (stereo not drawn) | Yes | N-Hall
